Test results reported in patent US9371331B2, “Modulators of methyl modifying enzymes, compositions and uses thereof” (Constellation Pharmaceuticals, Inc., priority 2012, dated 2016).
Where two headings read alike, the source gives them in different places.

Key:
Y641N EZH2 = Y641N EZH2 (Homo sapiens, UniProt Q15910, Y641N); assay: Y641N EZH2 assay: as EZH2 assay, with reconstituted H3K27Me2 oligonucleosomes as substrate; type: biochemical
EZH2 (rPRC2) = EZH2 (rPRC2) (Homo sapiens, UniProt Q15910); assay: EZH2 assay: rPRC2, biotinylated oligonucleosomes, 3H SAM methyl transfer (FlashPlate scintillation); type: biochemical; conditions: biotinylated oligonucleosome substrate
Protocol: Assays were carried out by mixing rPRC2 together with biotinylated oligonucleosome substrates in the presence of the radio-labeled enzyme co-factor, S-adenosyl-1-methionine (^3H SAM) (Perkin Elmer) and monitoring the enzymatically mediated transfer of tritiated methyl groups from ^3H SAM to histone lysine residues. The amount of resulting tritiated methyl histone product was measured by first capturing the biotinylated oligonucleosomes in streptavidin (SAV) coated FlashPlates (Perkin Elmer), followed by a wash step to remove un-reacted ^3H SAM, and then counting on a TopCount NXT 384 well plate scintillation counter (Perkin Elmer). The final assay conditions for EZH2 were as follows: 50 mM Tris Buffer pH 8.5, 1 mM DTT, 69 μM Brij-35 detergent, 5.0 mM MgCl2, 0.1 mg/mL BSA, 0.2 μM ^3H SAM, 0.2 μM biotinylated oligonucleosomes, 3.6 μM H3K27 mc3 peptide and 2 nM EZH2.
A 12.5 μL volume of the HMT enzyme, H3K27me3 peptide and oligonucleosome substrate in assay buffer was added to each well of the assay plate using a Multidrop Combi (ThermoFisher). Compounds were pre-incubated with the enzyme for 20 min, followed by initiation of the methyltransferase reaction by addition of 12.5 μL of ^3H SAM in assay buffer (final volume=25 μL). The final concentrations of compounds ranged from a top default concentration of 80 μM down to 0.16 μM in ten 2-fold dilution steps. Reactions were carried out for 60 minutes and quenched with 20 μL per well of 1.96 mM SAH, 50 mM Tris pH 8.5, 200 mM EDTA. Stopped reactions were transferred to SAV coated Flashplates (Perkin Elmer), incubated for 120 min, washed with a plate washer, and then read on the TopCount NXT (1.0 min/well) to measure the amount of methyl histone product formed during the reaction.

[1] = Y641N EZH2 IC50, Y641N mutant EZH2, H3K27Me2 oligonucleosome substrate
[2] = EZH2 IC50, wild-type EZH2 (rPRC2)
[3] = Y641N mutant EZH2, H3K27Me2 oligonucleosome substrate, read-out: Y641N EZH2 IC50
[4] = wild-type EZH2 (rPRC2), read-out: EZH2 IC50

EZH2 (rPRC2), sequence (Q15910 whole entry): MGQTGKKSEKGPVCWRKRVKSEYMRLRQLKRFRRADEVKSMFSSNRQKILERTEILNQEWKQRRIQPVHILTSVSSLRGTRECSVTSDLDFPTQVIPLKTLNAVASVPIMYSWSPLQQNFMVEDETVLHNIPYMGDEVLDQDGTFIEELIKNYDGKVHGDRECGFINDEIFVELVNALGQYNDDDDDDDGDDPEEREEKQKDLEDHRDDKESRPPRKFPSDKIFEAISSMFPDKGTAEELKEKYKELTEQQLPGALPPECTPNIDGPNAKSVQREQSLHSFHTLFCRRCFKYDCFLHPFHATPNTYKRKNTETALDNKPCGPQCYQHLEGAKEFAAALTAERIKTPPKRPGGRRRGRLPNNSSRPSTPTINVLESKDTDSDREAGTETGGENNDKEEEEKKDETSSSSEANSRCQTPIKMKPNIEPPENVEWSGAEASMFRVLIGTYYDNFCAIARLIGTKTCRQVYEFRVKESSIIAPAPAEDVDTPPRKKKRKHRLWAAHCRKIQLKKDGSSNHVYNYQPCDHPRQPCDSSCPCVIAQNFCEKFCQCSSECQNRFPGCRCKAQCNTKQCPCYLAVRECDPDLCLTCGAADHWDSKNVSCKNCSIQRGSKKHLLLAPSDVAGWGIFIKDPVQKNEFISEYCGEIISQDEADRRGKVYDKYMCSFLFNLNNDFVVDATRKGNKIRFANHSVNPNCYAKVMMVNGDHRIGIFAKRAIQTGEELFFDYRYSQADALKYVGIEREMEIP
EZH2 (rPRC2), sequence (O75530 whole entry partner): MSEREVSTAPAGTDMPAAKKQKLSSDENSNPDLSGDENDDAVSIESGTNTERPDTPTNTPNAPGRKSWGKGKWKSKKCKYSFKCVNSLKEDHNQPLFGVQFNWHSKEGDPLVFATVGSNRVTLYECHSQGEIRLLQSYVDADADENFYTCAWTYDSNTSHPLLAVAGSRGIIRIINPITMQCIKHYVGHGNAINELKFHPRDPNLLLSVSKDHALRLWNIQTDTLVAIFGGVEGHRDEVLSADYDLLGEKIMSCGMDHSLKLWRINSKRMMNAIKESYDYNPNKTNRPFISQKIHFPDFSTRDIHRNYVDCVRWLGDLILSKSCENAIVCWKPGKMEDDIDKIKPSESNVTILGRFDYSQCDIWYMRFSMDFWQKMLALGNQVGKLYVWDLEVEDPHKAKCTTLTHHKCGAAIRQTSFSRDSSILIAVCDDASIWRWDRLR
EZH2 (rPRC2), sequence (Q15022 whole entry partner): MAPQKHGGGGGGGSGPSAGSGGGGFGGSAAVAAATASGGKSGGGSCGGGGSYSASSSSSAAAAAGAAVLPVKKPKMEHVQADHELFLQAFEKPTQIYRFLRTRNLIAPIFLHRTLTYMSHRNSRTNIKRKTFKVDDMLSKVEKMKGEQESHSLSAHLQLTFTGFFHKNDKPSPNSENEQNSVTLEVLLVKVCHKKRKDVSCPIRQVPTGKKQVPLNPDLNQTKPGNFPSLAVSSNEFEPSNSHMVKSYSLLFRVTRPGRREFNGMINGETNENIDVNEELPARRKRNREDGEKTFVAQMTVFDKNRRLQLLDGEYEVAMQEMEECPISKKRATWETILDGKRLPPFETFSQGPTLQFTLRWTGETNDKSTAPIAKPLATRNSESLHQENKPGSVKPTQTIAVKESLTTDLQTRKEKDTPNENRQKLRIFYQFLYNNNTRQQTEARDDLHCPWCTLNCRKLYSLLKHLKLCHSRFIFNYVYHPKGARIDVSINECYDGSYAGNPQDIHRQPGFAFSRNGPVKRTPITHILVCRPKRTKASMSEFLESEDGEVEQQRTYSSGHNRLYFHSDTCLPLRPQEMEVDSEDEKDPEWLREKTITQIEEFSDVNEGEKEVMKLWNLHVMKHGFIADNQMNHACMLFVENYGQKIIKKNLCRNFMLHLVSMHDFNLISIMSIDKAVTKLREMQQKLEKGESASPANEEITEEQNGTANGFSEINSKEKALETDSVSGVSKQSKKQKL
Y641N EZH2, sequence (Q15910 whole entry Y641N): as the sequence (Q15910 whole entry) above, with Y641N counted along it
Y641N EZH2, sequence (O75530 whole entry partner): as the sequence (O75530 whole entry partner) above
Y641N EZH2, sequence (Q15022 whole entry partner): as the sequence (Q15022 whole entry partner) above

Question: `COc1cc(C)[nH]c(=O)c1CNC(=O)c1c(C)n([C@H](C)[C@H](OC)C2CC2)c2ncccc12` (single isomer, unassigned) [Compound 292, 1-((1R or S, 2R or S)-1-cyclopropyl-1-methoxypropan-2-yl)-N-((4-methoxy-6-methyl-2-oxo-1,2-dihydropyridin-3-yl)methyl)-2-methyl-1H-pyrrolo[2,3-b]pyridine-3-carboxamide] was tested. Which IC50 (Y641N EZH2; [1]) did it give?
Answer: Its IC50 is 100 to 1000 nM.

Question: And the IC50 (EZH2 (rPRC2); [2])?
Answer: The IC50 was under 100 nM.

Question: With `COc1cc(C)[nH]c(=O)c1CNC(=O)c1c(C)n(C(C)c2ccn(C)c(=O)c2)c2ncccc12` (single isomer, unassigned) [Compound 268, (R or S)-N-((4-methoxy-6-methyl-2-oxo-1,2-dihydropyridin-3-yl)methyl)-2-methyl-1-(1-(1-methyl-2-oxo-1,2-dihydropyridin-4-yl)ethyl)-1H-pyrrolo[2,3-b]pyridine-3-carboxamide] as the compound, how does the IC50 (Y641N EZH2; [1]) read?
Answer: Its IC50 is 100 to 1000 nM.

Question: And the IC50 (EZH2 (rPRC2); [2])?
Answer: Its IC50 is under 100 nM.

Question: `Cc1cc(C)c(CNC(=O)c2c(C)n(C(C)c3cccc(C(N)=O)c3)c3ccccc23)c(=O)[nH]1` (single isomer, unassigned) [Compound 226, (R or S)-1-(1-(3-carbamoylphenyl)ethyl)-N-((4,6-dimethyl-2-oxo-1,2-dihydropyridin-3-yl)methyl)-2-methyl-1H-indole-3-carboxamide] was tested. Which IC50 (Y641N EZH2; [1]) did it give?
Answer: Its IC50 is 1000 to 10000 nM.

Question: What about the IC50 (EZH2 (rPRC2); [2]) of the same compound?
Answer: The IC50 was 100 to 1000 nM.

Question: `COc1cc(C)[nH]c(=O)c1CNC(=O)c1c(C)n(C(C)C(C)(C)OC)c2ccccc12` (racemic) [Compound 277, (±)-1-(3-methoxy-3-methylbutan-2-yl)-N-((4-methoxy-6-methyl-2-oxo-1,2-dihydropyridin-3-yl)methyl)-2-methyl-1H-indole-3-carboxamide] was tested. Which IC50 (Y641N EZH2; [1]) did it give?
Answer: The IC50 was under 100 nM.

Question: What about the IC50 (EZH2 (rPRC2); [2]) of the same compound?
Answer: The IC50 was under 100 nM.

Question: How did the IC50 (Y641N EZH2; [3]) turn out when `Cc1cc(C)c(CNC(=O)c2c(C)n(C(C)Cn3ccccc3=O)c3ncccc23)c(=O)[nH]1` (racemic) [Compound 249, (±)-N-((4,6-dimethyl-2-oxo-1,2-dihydropyridin-3-yl)methyl)-2-methyl-1-(1-(2-oxopyridin-1(2H)-yl)propan-2-yl)-1H-pyrrolo[2,3-b]pyridine-3-carboxamide] was run?
Answer: The IC50 was 1000 to 10000 nM.

Question: What about the IC50 (EZH2 (rPRC2); [4]) of the same compound?
Answer: Its IC50 is 100 to 1000 nM.

Question: What does the source list for `Cc1cc(C)c(CNC(=O)c2c(C)n(Cc3cncnc3)c3ccccc23)c(=O)[nH]1` [Compound 149, N-((4,6-dimethyl-2-oxo-1,2-dihydropyridin-3-yl)methyl)-2-methyl-1-(pyrimidin-5-ylmethyl)-1H-indole-3-carboxamide]?
Answer: IC50 (Y641N EZH2; [1]): 1000 to 10000 nM; IC50 (EZH2 (rPRC2); [2]): 100 to 1000 nM

Question: How did the IC50 (Y641N EZH2; [1]) turn out when `Cc1cc(C)c(COC(=O)c2c(C)n(C3CCc4ccccc43)c3ccccc23)c(=O)[nH]1` (single isomer, unassigned) [Compound 213, (R or S)-(4,6-dimethyl-2-oxo-1,2-dihydropyridin-3-yl)methyl 1-(2,3-dihydro-1H-inden-1-yl)-2-methyl-1H-indole-3-carboxylate] was run?
Answer: Its IC50 is 100 to 1000 nM.

Question: And the IC50 (EZH2 (rPRC2); [2])?
Answer: Its IC50 is under 100 nM.

Question: What does the source list for `COc1cc(C)[nH]c(=O)c1CNC(=O)c1c(C)n(C(C)C2CCN(CC(=O)O)CC2)c2ccccc12` (single isomer, unassigned) [Compound 364, (R or S)-2-(4-(1-(3-((4-methoxy-6-methyl-2-oxo-1,2-dihydropyridin-3-yl)methylcarbamoyl)-2-methyl-1H-indol-1-yl)ethyl)piperidin-1-yl) acetic acid]?
Answer: IC50 (Y641N EZH2; [1]): 100 to 1000 nM; IC50 (EZH2 (rPRC2); [2]): < 100 nM

Question: With `CCCc1cc(C)[nH]c(=O)c1CNC(=O)c1c(C)n(C(C)COC)c2ncccc12` (racemic) [Compound 216, (±)-1-(1-methoxypropan-2-yl)-2-methyl-N-((6-methyl-2-oxo-4-propyl-1,2-dihydropyridin-3-yl)methyl)-1H-pyrrolo[2,3-b]pyridine-3-carboxamide] as the compound, how does the IC50 (Y641N EZH2; [1]) read?
Answer: The IC50 was 1000 to 10000 nM.

Question: And the IC50 (EZH2 (rPRC2); [2])?
Answer: Its IC50 is 100 to 1000 nM.

Question: For `COc1cc(C)[nH]c(=O)c1CNC(=O)c1c(C)n(C(C)c2ccn(C)c(=O)c2)c2ncccc12` (single isomer, unassigned) [Compound 269, (R or S)-N-((4-methoxy-6-methyl-2-oxo-1,2-dihydropyridin-3-yl)methyl)-2-methyl-1-(1-(1-methyl-2-oxo-1,2-dihydropyridin-4-yl)ethyl)-1H-pyrrolo[2,3-b]pyridine-3-carboxamide], which IC50 (Y641N EZH2; [1]) is on record?
Answer: Its IC50 is 1000 to 10000 nM.

Question: What about the IC50 (EZH2 (rPRC2); [2]) of the same compound?
Answer: Its IC50 is 100 to 1000 nM.

Question: Which results are given for `CCOc1cc(C)[nH]c(=O)c1CNC(=O)c1c(C)n(C(C)COC)c2ncccc12` (racemic) [Compound 235, (±)-N-((4-ethoxy-6-methyl-2-oxo-1,2-dihydropyridin-3-yl)methyl)-1-(1-methoxypropan-2-yl)-2-methyl-1H-pyrrolo[2,3-b]pyridine-3-carboxamide]?
Answer: IC50 (Y641N EZH2; [1]): 1000 to 10000 nM; IC50 (EZH2 (rPRC2); [2]): 100 to 1000 nM

Question: With `CCC(c1ccccc1)n1c(C)c(C(=O)NCc2c(C)cc(C)[nH]c2=O)c2cccnc21` (racemic) [Compound 220, (±)-N-((4,6-dimethyl-2-oxo-1,2-dihydropyridin-3-yl)methyl)-2-methyl-1-(1-phenylpropyl)-1H-pyrrolo[2,3-b]pyridine-3-carboxamide] as the compound, how does the IC50 (Y641N EZH2; [1]) read?
Answer: Its IC50 is 100 to 1000 nM.

Question: What about the IC50 (EZH2 (rPRC2); [2]) of the same compound?
Answer: Its IC50 is under 100 nM.

Question: With `CCC(C)n1c(C)c(C(=O)NCc2c(C)cc(C)[nH]c2=O)c2cccnc21` (racemic) [Compound 185, (±)-1-(sec-butyl)-N-((4,6-dimethyl-2-oxo-1,2-dihydropyridin-3-yl)methyl)-2-methyl-1H-pyrrolo[2,3-b]pyridine-3-carboxamide] as the compound, how does the IC50 (Y641N EZH2; [1]) read?
Answer: Its IC50 is 1000 to 10000 nM.

Question: And the IC50 (EZH2 (rPRC2); [2])?
Answer: The IC50 was 100 to 1000 nM.

Question: Which IC50 (Y641N EZH2; [1]) does the source give for `CC[C@@H](C)n1c(C)c(C(=O)NCc2c(C)cc(C)[nH]c2=O)c2cnc(C(C)C)nc21` [Compound 197, (R)-7-(sec-butyl)-N-((4,6-dimethyl-2-oxo-1,2-dihydropyridin-3-yl)methyl)-2-isopropyl-6-methyl-7H-pyrrolo[2,3-d]pyrimidine-5-carboxamide] here?
Answer: Its IC50 is 100 to 1000 nM.

Question: And the IC50 (EZH2 (rPRC2); [2])?
Answer: Its IC50 is 100 to 1000 nM.

Question: Which results are given for `COCC(C)n1c(C)c(C(=O)NCc2c(OC)cc(C)[nH]c2=O)c2ccc(C(F)(F)F)nc21` (racemic) [Compound 309, (±)-N-((4-methoxy-6-methyl-2-oxo-1,2-dihydropyridin-3-yl)methyl)-1-(1-methoxypropan-2-yl)-2-methyl-6-(trifluoromethyl)-1H-pyrrolo[2,3-b]pyridine-3-carboxamide]?
Answer: IC50 (Y641N EZH2; [1]): 1000 to 10000 nM; IC50 (EZH2 (rPRC2); [2]): 100 to 1000 nM

Question: Which results are given for `COc1cc(C)[nH]c(=O)c1CNC(=O)c1c(C)n(C(C)C(C)OC)c2ccccc12` (single isomer, unassigned) [Compound 308, Trans-(R or S, R or S)-N-((4-methoxy-6-methyl-2-oxo-1,2-dihydropyridin-3-yl)methyl)-1-(3-methoxybutan-2-yl)-2-methyl-1H-indole-3-carboxamide]?
Answer: IC50 (Y641N EZH2; [1]): 100 to 1000 nM; IC50 (EZH2 (rPRC2); [2]): 100 to 1000 nM

Question: Which “Y641N EZH2 IC50” value (Y641N EZH2; Y641N mutant EZH2, H3K27Me2 oligonucleosome substrate) does the source give for `Cc1cc(C)c(CNC(=O)c2cnn(CCc3ccccc3)c2C)c(O)n1` [Compound 110, N-((2-hydroxy-4,6-dimethylpyridin-3-yl)methyl)-5-methyl-1-phenethyl-1H-pyrazole-4-carboxamide] here?
Answer: Its value is “*(10 μM)”.

Question: What about the “EZH2 IC50” value (EZH2 (rPRC2); wild-type EZH2 (rPRC2)) of the same compound?
Answer: Its value is “*(10 μM)”.

Question: How did the IC50 (Y641N EZH2; [1]) turn out when `COc1cccc(C(C)n2c(C)c(C(=O)NCc3c(C)cc(C)[nH]c3=O)c3cccnc32)c1` (racemic) [Compound 206, (±)-N-((4,6-dimethyl-2-oxo-1,2-dihydropyridin-3-yl)methyl)-1-(1-(3-methoxyphenyl)ethyl)-2-methyl-1H-pyrrolo[2,3-b]pyridine-3-carboxamide] was run?
Answer: The IC50 was 1000 to 10000 nM.

Question: And the IC50 (EZH2 (rPRC2); [2])?
Answer: The IC50 was 100 to 1000 nM.

Question: `Cc1cc(C)c(CNC(=O)c2cnn(C(C)c3ccccc3)c2C)c(O)n1` (single isomer, unassigned) [Compound 107, (R or S)—N-((2-hydroxy-4,6-dimethylpyridin-3-yl)methyl)-5-methyl-1-(1-phenylethyl)-1H-pyrazole-4-carboxamide] was tested. Which IC50 (Y641N EZH2; [3]) did it give?
Answer: Its IC50 is over 10000 nM.

Question: What about the IC50 (EZH2 (rPRC2); [4]) of the same compound?
Answer: The IC50 was over 10000 nM.

Question: For `COc1cc(C)[nH]c(=O)c1CNC(=O)c1c(C)n(C(C)[C@H]2CNCCO2)c2ncncc12` (stereo partly drawn) [Compound 351, N-((4-methoxy-6-methyl-2-oxo-1,2-dihydropyridin-3-yl)methyl)-6-methyl-7-(1-((R)-morpholin-2-yl)ethyl)-7H-pyrrolo[2,3-d]pyrimidine-5-carboxamide], which IC50 (Y641N EZH2; [1]) is on record?
Answer: Its IC50 is 100 to 1000 nM.

Question: What about the IC50 (EZH2 (rPRC2); [2]) of the same compound?
Answer: Its IC50 is under 100 nM.

Question: How did the IC50 (Y641N EZH2; [3]) turn out when `COc1cc(C)[nH]c(=O)c1CNC(=O)c1c(C)n(C(=O)CC(C)C)c2ccccc12` [Compound 329, N-((4-methoxy-6-methyl-2-oxo-1,2-dihydropyridin-3-yl)methyl)-2-methyl-1-(3-methylbutanoyl)-1H-indole-3-carboxamide] was run?
Answer: Its IC50 is 100 to 1000 nM.

Question: What about the IC50 (EZH2 (rPRC2); [4]) of the same compound?
Answer: The IC50 was 100 to 1000 nM.

Question: Which IC50 (Y641N EZH2; [1]) does the source give for `COc1cc(C)[nH]c(=O)c1CNC(=O)c1c(C)n(C(C)C2CCC(F)(F)CC2)c2ncncc12` (racemic) [Compound 334, (±)-7-(1-(4,4-difluorocyclohexyl)ethyl)-N-((4-methoxy-6-methyl-2-oxo-1,2-dihydropyridin-3-yl)methyl)-6-methyl-7H-pyrrolo[2,3-d]pyrimidine-5-carboxamide] here?
Answer: Its IC50 is 100 to 1000 nM.

Question: What about the IC50 (EZH2 (rPRC2); [2]) of the same compound?
Answer: The IC50 was under 100 nM.
